Like-named read-outs stand apart in the source and are kept apart here.
Key:
[1] = molecular target: GSK3α (GST-full length GSK3α) (Homo sapiens (Human), UniProt P49840); assay: GSK3α TR-FRET kinase assay; type: biochemical
How it was run: (§1)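 Full-length GST-tagged human enzyme (1 nM) is exposed to test compound for 30 min before substrates are added. Phosphorylation of a primed biotinylated glycogen synthase peptide proceeds 100 min at room temperature at low ATP (4 μM α; 2 μM β) or high ATP (1 mM). Product is quantified by TR-FRET.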

[2] = molecular target: GSK3b (GST-full length GSK3b) (Homo sapiens (Human), UniProt P49841); assay: GSK3b TR-FRET kinase assay; type: biochemical
Chain of GSK3b (GST-full length GSK3b) (P49841 whole entry): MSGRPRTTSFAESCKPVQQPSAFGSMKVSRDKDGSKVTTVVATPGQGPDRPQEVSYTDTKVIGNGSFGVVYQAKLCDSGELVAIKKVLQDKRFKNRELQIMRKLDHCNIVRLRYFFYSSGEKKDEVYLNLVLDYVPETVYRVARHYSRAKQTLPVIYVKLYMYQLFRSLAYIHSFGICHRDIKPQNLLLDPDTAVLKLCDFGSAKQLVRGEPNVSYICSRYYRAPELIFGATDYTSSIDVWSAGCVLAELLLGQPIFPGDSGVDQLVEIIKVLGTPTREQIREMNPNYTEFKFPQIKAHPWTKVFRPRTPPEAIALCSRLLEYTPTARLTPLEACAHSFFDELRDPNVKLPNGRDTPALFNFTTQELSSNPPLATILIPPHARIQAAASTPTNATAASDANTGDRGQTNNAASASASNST
How it was run: as §1

[3] = 1 nM GSK3α, 4 μM ATP, 30 minute preincubation, geometric mean, read-out: GSK3-A TR-FRET BIOCHEMICAL (TR-FRET), GMean, IC50
[4] = read-out: GSK3-A (TR-FRET 1 mM ATP), GMean, IC50, 1 mM ATP, geometric mean
[5] = 1 nM GSK3b, 2 μM ATP, 30 minute preincubation, geometric mean, read-out: GSK3-B TR-FRET BIOCHEMICAL (TR-FRET), GMean, IC50
[6] = read-out: GSK3-B (TR-FRET 1 mM ATP), GMean, IC50, 1 mM ATP, geometric mean
[7] = 1 nM GSK3α, 4 μM ATP, 30 minute preincubation, read-out: GSK3-A TR-FRET BIOCHEMICAL (TR-FRET), IC50
[8] = 1 nM GSK3b, 2 μM ATP, 30 minute preincubation, read-out: GSK3-B TR-FRET BIOCHEMICAL (TR-FRET), IC50
[9] = 1 nM GSK3α, 4 μM ATP, 30 minute preincubation, Table 16, read-out: GSK3-A TR-FRET BIOCHEMICAL (TR-FRET)
[10] = 1 nM GSK3b, 2 μM ATP, 30 minute preincubation, Table 16, read-out: GSK3-B TR-FRET BIOCHEMICAL (TR-FRET)
[11] = 1 nM GSK3α, 4 μM ATP, 30 minute preincubation, Table 16, read-out: GSK3-A TR-FRET BIOCHEMICAL (TR-FRET), IC50
[12] = 1 nM GSK3b, 2 μM ATP, 30 minute preincubation, Table 16, read-out: GSK3-B TR-FRET BIOCHEMICAL (TR-FRET), IC50

Chain of GSK3α (GST-full length GSK3α) (P49840 whole entry): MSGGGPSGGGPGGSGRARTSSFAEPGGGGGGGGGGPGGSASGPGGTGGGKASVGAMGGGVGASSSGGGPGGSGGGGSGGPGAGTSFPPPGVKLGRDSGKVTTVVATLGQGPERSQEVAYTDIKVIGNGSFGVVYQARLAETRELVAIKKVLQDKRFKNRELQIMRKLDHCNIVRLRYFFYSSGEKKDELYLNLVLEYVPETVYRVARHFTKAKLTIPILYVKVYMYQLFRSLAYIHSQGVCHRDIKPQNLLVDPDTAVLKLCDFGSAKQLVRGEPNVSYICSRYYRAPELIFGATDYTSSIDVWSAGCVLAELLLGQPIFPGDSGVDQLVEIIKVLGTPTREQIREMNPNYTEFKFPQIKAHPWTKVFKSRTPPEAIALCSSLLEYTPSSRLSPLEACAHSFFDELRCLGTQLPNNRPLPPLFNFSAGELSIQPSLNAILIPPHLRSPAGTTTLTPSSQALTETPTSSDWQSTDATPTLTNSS

In the case of `CCC1(c2cccc(C3CCOCC3)c2)C2=C(CC(C)(C)CC2=O)Nc2n[nH]cc21` (stereo not shown) [Compound 819638], the IC50 [1, 3] is reported as ≤ 100 nM, the IC50 [1, 4] is reported as 100 to 1000 nM and the IC50 [2, 5] is reported as 100 to 1000 nM. For the same compound, the IC50 [2, 6] was > 5000 nM.
For `CCC1(c2cccc(C(F)(F)F)c2)C2=C(CC(C)(C)N(C)C2=O)Nc2n[nH]cc21` (stereo not shown) [Compound 823130], the IC50 [1, 7] was ≤ 100 nM and the IC50 [2, 8] was 100 to 1000 nM.
With `CCC1(c2cccc(-c3cnn(C)c3)c2)C2=C(CC(C)CC2=O)Nc2n[nH]cc21` (stereo not shown) [Compound 823720] the IC50 [1, 3] was ≤ 100 nM and the IC50 [2, 5] was 100 to 1000 nM.
For `CCC1(c2cccc(-c3cnn(C)c3)c2)C2=C(CC(C)CC2=O)Nc2n[nH]cc21` (stereo not shown) [Compound 823721], the IC50 [1, 3] was ≤ 100 nM, the IC50 [1, 4] was 100 to 1000 nM and the IC50 [2, 5] was 100 to 1000 nM. For the same compound, the IC50 [2, 6] was > 5000 nM.
In the case of `CCC1(c2cccc(-c3cnn(C)c3)c2)C2=C(CC(C)CC2=O)Nc2n[nH]cc21` (stereo not shown) [Compound 823726], the IC50 [1, 3] is reported as > 5000 nM and the IC50 [2, 5] is reported as > 5000 nM.
In the case of `CCC1(c2cccc(C(F)(F)F)c2)C2=C(CCN(C(C)C)C2=O)Nc2n[nH]cc21` (stereo not shown) [Compound 825755], the IC50 [1, 7] is reported as ≤ 100 nM and the IC50 [2, 8] is reported as 100 to 1000 nM.
An IC50 [1, 9] of 100 to 1000 nM and an IC50 [2, 10] of 100 to 1000 nM were found for `CC1(C)CC(=O)C2=C(C1)Nc1n[nH]cc1C21CCOCC1` [Compound 826648, 7′,7′-dimethyl-2,2′,3,5,6,7′,8′,9′-octahydrospiro[pyran-4,4′-pyrazolo[3,4-b]quinolin]-5′ (6′H)-one] in this work.
An IC50 [1, 9] of 100 to 1000 nM and an IC50 [2, 10] of 1000 to 5000 nM were found for `CC(=O)N1CCC2(CC1)C1=C(CC(C)(C)CC1=O)Nc1n[nH]cc12` [Compound 826649] in this work.
For `CC1(C)CC(=O)C2=C(C1)Nc1n[nH]cc1C21CCCCC1` [Compound 826650], the IC50 [1, 9] was ≤ 100 nM and the IC50 [2, 10] was ≤ 100 nM.
An IC50 [1, 9] of 100 to 1000 nM and an IC50 [2, 10] of 100 to 1000 nM were found for `CC1(C)CC(=O)C2=C(C1)Nc1n[nH]cc1C21CCOC1` (stereo not shown) [Compound 826713] in this work.
With `CN1CCC2(CC1)C1=C(CC(C)(C)CC1=O)Nc1n[nH]cc12` [Compound 826714] the IC50 [1, 11] was > 5000 nM and the IC50 [2, 12] was > 5000 nM.
In the case of `CCC1(c2cccc(Br)c2)C2=C(CC(C)CC2=O)Nc2n[nH]c(C(F)(F)F)c21` (stereo not shown) [Compound 826715], the IC50 [1, 3] is reported as ≤ 100 nM and the IC50 [2, 5] is reported as ≤ 100 nM.
For `CCC1(c2cccc(C(F)F)c2)C2=C(CC(C)(C)CC2=O)Nc2n[nH]cc21` (stereo not shown) [Compound 826716], the IC50 [1, 3] was 100 to 1000 nM and the IC50 [2, 5] was > 5000 nM.
`CC[C@@]1(c2cccc(C(F)F)c2)C2=C(CC(C)(C)CC2=O)Nc2n[nH]cc21` [Compound 826717] was tested, and the IC50 [1, 3] was ≤ 100 nM, the IC50 [1, 4] was 100 to 1000 nM and the IC50 [2, 5] was ≤ 100 nM. The IC50 [2, 6] was 1000 to 5000 nM.
With `CCC1(c2cccc(S(C)(=O)=O)c2)C2=C(CC(C)(C)CC2=O)Nc2n[nH]cc21` (stereo not shown) [Compound 826718] the IC50 [1, 4] was ≤ 100 nM and the IC50 [2, 6] was 100 to 1000 nM.
`CC[C@]1(c2cccc(S(C)(=O)=O)c2)C2=C(CC(C)(C)CC2=O)Nc2n[nH]cc21` [Compound 826719] was tested, and the IC50 [1, 3] was 1000 to 5000 nM and the IC50 [2, 5] was > 5000 nM.
An IC50 [1, 11] of 100 to 1000 nM and an IC50 [2, 12] of 1000 to 5000 nM were found for `CC(=O)N1CCC2(C1)C1=C(CC(C)(C)CC1=O)Nc1n[nH]cc12` (stereo not shown) [Compound 826763] in this work.
An IC50 [1, 9] of 100 to 1000 nM and an IC50 [2, 10] of 1000 to 5000 nM were found for `CC1CCCC12C1=C(CC(C)(C)CC1=O)Nc1n[nH]cc12` (stereo not shown) [Compound 826765] in this work.
An IC50 [1, 3] of 100 to 1000 nM and an IC50 [2, 5] of 100 to 1000 nM were found for `CC[C@]1(c2ccccc2)C2=C(CC(C)(C)[C@@H](F)C2=O)Nc2n[nH]cc21` [Compound 826766] in this work.
`CC[C@]1(c2ccccc2)C2=C(CC(C)(C)[C@H](F)C2=O)Nc2n[nH]cc21` [Compound 826767] was tested, and the IC50 [1, 3] was > 5000 nM and the IC50 [2, 5] was > 5000 nM.
For `CC[C@@]1(c2ccccc2)C2=C(CC(C)(C)[C@@H](F)C2=O)Nc2n[nH]cc21` [Compound 826768], the IC50 [1, 3] was ≤ 100 nM and the IC50 [2, 5] was 100 to 1000 nM.
`CC[C@@]1(c2ccccc2)C2=C(CC(C)(C)[C@H](F)C2=O)Nc2n[nH]cc21` [Compound 826769] was tested, and the IC50 [1, 3] was > 5000 nM and the IC50 [2, 5] was > 5000 nM.
With `CCC1(c2cccc(C(F)(F)F)c2)C2=C(CC(C)(C)N(C)C2=O)Nc2n[nH]cc21` (stereo not shown) [Compound 826790] the IC50 [1, 7] was ≤ 100 nM, the IC50 [1, 4] was 100 to 1000 nM and the IC50 [2, 8] was ≤ 100 nM. The IC50 [2, 6] was 1000 to 5000 nM.
An IC50 [1, 7] of 100 to 1000 nM and an IC50 [2, 8] of 1000 to 5000 nM were found for `CCC1(c2cccc(C(F)(F)F)c2)C2=C(CC(C)(C)N(C)C2=O)Nc2n[nH]cc21` (stereo not shown) [Compound 826791] in this work.
An IC50 [1, 3] of 100 to 1000 nM and an IC50 [2, 5] of 100 to 1000 nM were found for `CCC1(c2cccc(Br)c2)C2=C(CC(C)CC2=O)Nc2n[nH]c(C(F)(F)F)c21` (stereo not shown) [Compound 828849] in this work.

From patent US20250313563A1, “GLYCOGEN SYNTHASE KINASE 3 INHIBITORS AND USES THEREOF” (The Broad Institute, Inc., priority 2022, published 2025)
